Tested on: antisera raised by presenting a suitable bupropion variant-carrier material conjugate
Test: Competition of bupropion with radiolabeled bupropion or competitor for binding to antisera
Procedure: Samples of six standard solutions of bupropion in blank plasma having concentrations of 0.39 to 50 ng/ml) are pipetted (0.1 ml each) in duplicate into 12×75 mm plastic tubes. Duplicate non-specific binding (no antibody) and maximum binding tubes (no unlabeled bupropion) receive 0.1 ml blank plasma. Spiked plasma controls at several concentrations of (e.g., 1.0, 10.0, and 100 ng/ml) and plasma samples for assay (diluted into the standard range with blank plasma if necessary) are assayed in duplicate. After being placed in an ice bath, all tubes receive (in order) 0.2 ml ^3 H bupropion (416 pg. containing approximately 10^4 cpm) and 0.7 ml anti-bupropion serum (raised to a ring-functionalized immunogen according to the present invention) (at pre-determined dilutions such that approximately 40% of the ^3 H bupropion added is bound), both in assay buffer (0.05 M phosphate-bufferedisotonic saline, containing 0.01 M EDTA and 0.1% gelatin, pH 7.0). […] The supernatants, containing antibody-bound ^3 H bupropion are carefully decanted into liquid scintillation cocktail for quantitation of ^3 H. After counts (minus average non-specific binding cpm) are expressed as percentages of average maximum binding cpm, bupropion concentrations in plasma samples and spiked controls are read from a standard curve (log concentration vs percent average maximum binding).

## CC(NC(C)(C)C)C(=O)c1cccc(Cl)c1 (racemic) [bupropion, (±)-2-tert-butylamino-3'-chloropropiophenone]
  competition with radiolabeled bupropion or radiolabeled competitor for binding to antisera: successfully compete

— patent US4356165A, “Bupropion radioimmunoassay, and kit” (Burroughs Wellcome Co., priority 1980, dated 1982)
